Experimental data as given in patent US20220380368A1, “SPIROCYCLIC ANDROGEN RECEPTOR PROTEIN DEGRADERS” (THE REGENTS OF THE UNIVERSITY OF MICHIGAN, priority 2019, published 2022).

Biological target: T1, AR protein (Homo sapiens, UniProt P10275)
T1 construct: endogenous in cells; host or cells: VCaP
T1 sequence (P10275 1-920): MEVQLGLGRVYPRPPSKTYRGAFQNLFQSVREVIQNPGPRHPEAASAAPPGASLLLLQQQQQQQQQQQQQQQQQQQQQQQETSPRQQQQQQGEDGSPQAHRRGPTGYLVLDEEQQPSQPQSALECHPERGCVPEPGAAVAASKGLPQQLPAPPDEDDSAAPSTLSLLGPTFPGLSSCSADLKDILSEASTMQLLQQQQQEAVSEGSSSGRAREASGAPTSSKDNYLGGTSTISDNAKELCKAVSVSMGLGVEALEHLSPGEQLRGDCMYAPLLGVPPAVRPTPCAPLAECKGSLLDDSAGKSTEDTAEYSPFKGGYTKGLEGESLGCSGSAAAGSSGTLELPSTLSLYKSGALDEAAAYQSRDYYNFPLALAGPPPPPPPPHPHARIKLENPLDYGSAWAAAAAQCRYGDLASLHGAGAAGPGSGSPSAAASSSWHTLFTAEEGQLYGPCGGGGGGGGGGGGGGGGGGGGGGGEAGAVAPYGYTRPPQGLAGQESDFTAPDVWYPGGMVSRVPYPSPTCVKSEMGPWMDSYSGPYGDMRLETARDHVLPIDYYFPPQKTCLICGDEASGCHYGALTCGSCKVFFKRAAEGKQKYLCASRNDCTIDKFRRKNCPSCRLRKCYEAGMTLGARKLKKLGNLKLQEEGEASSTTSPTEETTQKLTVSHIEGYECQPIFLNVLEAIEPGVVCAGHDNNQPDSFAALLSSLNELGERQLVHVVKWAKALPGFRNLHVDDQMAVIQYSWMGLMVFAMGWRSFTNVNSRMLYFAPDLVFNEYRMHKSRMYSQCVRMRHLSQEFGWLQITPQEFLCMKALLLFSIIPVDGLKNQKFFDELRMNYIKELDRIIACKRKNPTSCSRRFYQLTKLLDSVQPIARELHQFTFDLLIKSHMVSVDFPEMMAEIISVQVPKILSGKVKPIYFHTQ
Assay: Western blotting analysis of AR protein levels in VCaP cells, band quantification, DC50/DC90
Assay type: cell-based
Conditions: VCaP cells, Table 6; read-out: VCaP DC50
Description: The appropriate cell line, e.g., prostate cancer LNCaP, Vcap, or 22RV1 cell line, was treated with Compounds of the Disclosure as indicated. The treated cells were lysed with RIPA buffer. […] GAPDH was used as a loading control.
Bands were quantified with ImageJ software. The relative numbers of each band obtained from normalization with its corresponding GAPDH level were compared with Prism 8 software. The DC50 values were produced from Prism 8, and the DC90 values were calculated with an equation=Bottom+(Top−Bottom)/(1+10^((Log EC50−X)*HillSlope) based on DC50 and Hillslope values.

| SMILES | DC50 [nM] |
| --- | --- |
| C[C@H]1CC2(CCN(c3ncc(C(=O)N4CCN(C5CN(c6cc7c(cc6F)C(=O)N(C6CCC(=O)NC6=O)C7=O)C5)CC4)cn3)CC2)CN1c1ccc(C#N)c(Cl)c1 (stereo partly drawn) [Cpd. No. 523, 2-chloro-4-((3S)-8-(5-(4-(1-(2-(2,6-dioxopiperidin-3-yl)-6-fluoro-1,3-dioxoisoindolin-5-yl)azetidin-3-yl)piperazine-1-carbonyl)pyrimidin-2-yl)-3-methyl-2,8-diazaspiro[4.5]decan-2-yl)benzonitrile] | < 1 |
| C[C@H]1CC2(CCN(c3ccc(C(=O)N4CCN(C5CN(c6cc7c(cc6F)C(=O)N(C6CCC(=O)NC6=O)C7=O)C5)CC4)cn3)CC2)CN1c1ccc(C#N)c(Cl)c1 (stereo partly drawn) [Cpd. No. 504, 2-chloro-4-((3S)-8-(5-(4-(1-(2-(2,6-dioxopiperidin-3-yl)-6-fluoro-1,3-dioxoisoindolin-5-yl)azetidin-3-yl)piperazine-1-carbonyl)pyridin-2-yl)-3-methyl-2,8-diazaspiro[4.5]decan-2-yl)benzonitrile] | < 1 |
| C[C@H]1CC2(CCN(c3ccc(C(=O)N4CCN(CC5CN(c6ccc7c(c6)C(=O)N(C6CCC(=O)NC6=O)C7=O)C5)CC4)cc3)CC2)CN1c1ccc(C#N)c(Cl)c1 (stereo partly drawn) [Cpd. No. 535, 2-chloro-4-((3S)-8-(4-(4-((1-(2-(2,6-dioxopiperidin-3-yl)-1,3-dioxoisoindolin-5-yl)azetidin-3-yl)methyl)piperazine-1-carbonyl)phenyl)-3-methyl-2,8-diazaspiro[4.5]decan-2-yl)benzonitrile] | < 1 |
| C[C@H]1CC2(CCN(c3ccc(C(=O)N4CCN(C5CN(c6cc7c(cc6F)C(=O)N(C6CCC(=O)NC6=O)C7=O)C5)CC4)nn3)CC2)CN1c1ccc(C#N)c(Cl)c1 (stereo partly drawn) [Cpd. No. 536, 2-chloro-4-((3S)-8-(6-(4-(1-(2-(2,6-dioxopiperidin-3-yl)-6-fluoro-1,3-dioxoisoindolin-5-yl)azetidin-3-yl)piperazine-1-carbonyl)pyridazin-3-yl)-3-methyl-2,8-diazaspiro[4.5]decan-2-yl)benzonitrile] | < 1 |
| C[C@H]1CC2(CCN(c3ccc(C(=O)N4CCN(C5CCN(c6ccc7c(c6)C(=O)N(C6CCC(=O)NC6=O)C7=O)CC5)CC4)cc3F)CC2)CN1c1ccc(C#N)c(Cl)c1 (stereo partly drawn) [Cpd. No. 520, 2-chloro-4-((3S)-8-(4-(4-(1-(2-(2,6-dioxopiperidin-3-yl)-1,3-dioxoisoindolin-5-yl)piperidin-4-yl)piperazine-1-carbonyl)-2-fluorophenyl)-3-methyl-2,8-diazaspiro[4.5]decan-2-yl)benzonitrile] | < 1 |
| C[C@H]1CC2(CCN(c3ccc(C(=O)N4CCN(C5CN(c6cc7c(cc6F)C(=O)N(C6CCC(=O)NC6=O)C7=O)C5)CC4)cc3F)CC2)CN1c1ccc(C#N)c(Cl)c1 (stereo partly drawn) [Cpd. No. 532, 2-chloro-4-((3S)-8-(4-(4-(1-(2-(2,6-dioxopiperidin-3-yl)-6-fluoro-1,3-dioxoisoindolin-5-yl)azetidin-3-yl)piperazine-1-carbonyl)-2-fluorophenyl)-3-methyl-2,8-diazaspiro[4.5]decan-2-yl)benzonitrile] | < 1 |
| C[C@H]1CC2(CCN(c3ccc(C(=O)N4CCN(C5CN(c6cc7c(cc6F)C(=O)N(C6CCC(=O)NC6=O)C7=O)C5)CC4)cn3)CC2)CN1c1ccc(C#N)c(Cl)c1 (stereo partly drawn) [Cpd. No. 507, 2-chloro-4-((3S)-8-(5-(4-(1-(2-(2,6-dioxopiperidin-3-yl)-6-fluoro-1,3-dioxoisoindolin-5-yl)azetidin-3-yl)piperazine-1-carbonyl)pyridin-2-yl)-3-methyl-2,8-diazaspiro[4.5]decan-2-yl)benzonitrile] | 10 to 100 |
| C[C@H]1CC2(CCN(c3ccc(C(=O)N4CCC(CN5Cc6cc7c(cc6C5)C(=O)N(C5CCC(=O)NC5=O)C7=O)CC4)cc3F)CC2)CN1c1ccc(C#N)c(Cl)c1 (stereo partly drawn) [Cpd. No. 527, 2-chloro-4-((3S)-8-(4-(4-((6-(2,6-dioxopiperidin-3-yl)-5,7-dioxo-3,5,6,7-tetrahydropyrrolo[3,4-f]isoindol-2(1H)-yl)methyl)piperidine-1-carbonyl)-2-fluorophenyl)-3-methyl-2,8-diazaspiro[4.5]decan-2-yl)benzonitrile] | < 1 |
| C[C@H]1CC2(CCN(c3ccc(C(=O)N4CCN(C5CCN(c6ccc7c(c6)C(=O)N(C6CCC(=O)NC6=O)C7=O)CC5)CC4)cc3F)CC2)CN1c1ccc(C#N)c(Cl)c1 (stereo partly drawn) [Cpd. No. 518, 2-chloro-4-((3S)-8-(4-(4-(1-(2-(2,6-dioxopiperidin-3-yl)-1,3-dioxoisoindolin-5-yl)piperidin-4-yl)piperazine-1-carbonyl)-2-fluorophenyl)-3-methyl-2,8-diazaspiro[4.5]decan-2-yl)benzonitrile] | 10 to 100 |
| C[C@H]1CC2(CCN(c3ccc(C(=O)N4CC[C@H](N5CCN(c6ccc7c(c6)C(=O)N(C6CCC(=O)NC6=O)C7=O)CC5)C4)cc3)CC2)CN1c1ccc(C#N)c(Cl)c1 (stereo partly drawn) [Cpd. No. 516, 2-chloro-4-((3S)-8-(4-((3S)-3-(4-(2-(2,6-dioxopiperidin-3-yl)-1,3-dioxoisoindolin-5-yl)piperazin-1-yl)pyrrolidine-1-carbonyl)phenyl)-3-methyl-2,8-diazaspiro[4.5]decan-2-yl)benzonitrile] | 1 to 10 |
| C[C@H]1CC2(CCN(c3ccc(C(=O)N4CCN(CC5CN(c6cc7c(cc6F)C(=O)N(C6CCC(=O)NC6=O)C7=O)C5)CC4)cc3F)CC2)CN1c1ccc(C#N)c(Cl)c1 (stereo partly drawn) [Cpd. No. 533, 2-chloro-4-((3S)-8-(4-(4-((1-(2-(2,6-dioxopiperidin-3-yl)-6-fluoro-1,3-dioxoisoindolin-5-yl)azetidin-3-yl)methyl)piperazine-1-carbonyl)-2-fluorophenyl)-3-methyl-2,8-diazaspiro[4.5]decan-2-yl)benzonitrile] | < 1 |
| C[C@H]1CC2(CCN(c3ccc(C(=O)N4CCN(C5CN(c6cc7c(cc6F)C(=O)N(C6CCC(=O)NC6=O)C7=O)C5)CC4)cn3)CC2)CN1c1ccc(C#N)c(Cl)c1 (stereo partly drawn) [Cpd. No. 506, 2-chloro-4-((3S)-8-(5-(4-(1-(2-(2,6-dioxopiperidin-3-yl)-6-fluoro-1,3-dioxoisoindolin-5-yl)azetidin-3-yl)piperazine-1-carbonyl)pyridin-2-yl)-3-methyl-2,8-diazaspiro[4.5]decan-2-yl)benzonitrile] | < 1 |
| C[C@H]1CC2(CCN(c3ccc(C(=O)N4CC[C@@H](N5CCN(c6cc7c(cc6F)C(=O)N(C6CCC(=O)NC6=O)C7=O)CC5)C4)cc3)CC2)CN1c1ccc(C#N)c(Cl)c1 (stereo partly drawn) [Cpd. No. 515, 2-chloro-4-((3S)-8-(4-((3R)-3-(4-(2-(2,6-dioxopiperidin-3-yl)-6-fluoro-1,3-dioxoisoindolin-5-yl)piperazin-1-yl)pyrrolidine-1-carbonyl)phenyl)-3-methyl-2,8-diazaspiro[4.5]decan-2-yl)benzonitrile] | 10 to 100 |
| C[C@H]1CC2(CCN(c3ncc(C(=O)N4CCN(C5CCN(c6cc7c(cc6F)C(=O)N(C6CCC(=O)NC6=O)C7=O)CC5)CC4)cn3)CC2)CN1c1ccc(C#N)c(Cl)c1 (stereo partly drawn) [Cpd. No. 524, 2-chloro-4-((3S)-8-(5-(4-(1-(2-(2,6-dioxopiperidin-3-yl)-6-fluoro-1,3-dioxoisoindolin-5-yl)piperidin-4-yl)piperazine-1-carbonyl)pyrimidin-2-yl)-3-methyl-2,8-diazaspiro[4.5]decan-2-yl)benzonitrile] | < 1 |
| C[C@H]1CC2(CCN(c3ccc(C(=O)N4CC(N5CCN(c6cc7c(cc6F)C(=O)N(C6CCC(=O)NC6=O)C7=O)CC5)C4)nc3)CC2)CN1c1ccc(C#N)c(Cl)c1 (stereo partly drawn) [Cpd. No. 538, 2-chloro-4-((3S)-8-(6-(3-(4-(2-(2,6-dioxopiperidin-3-yl)-6-fluoro-1,3-dioxoisoindolin-5-yl)piperazin-1-yl)azetidine-1-carbonyl)pyridin-3-yl)-3-methyl-2,8-diazaspiro[4.5]decan-2-yl)benzonitrile] | 1 to 10 |
| C[C@H]1CC2(CCN(c3ccc(C(=O)N4CC(N5CCN(c6cc7c(cc6F)C(=O)N(C6CCC(=O)NC6=O)C7=O)CC5)C4)cn3)CC2)CN1c1ccc(C#N)c(Cl)c1 (stereo partly drawn) [Cpd. No. 539, 2-chloro-4-((3S)-8-(5-(3-(4-(2-(2,6-dioxopiperidin-3-yl)-6-fluoro-1,3-dioxoisoindolin-5-yl)piperazin-1-yl)azetidine-1-carbonyl)pyridin-2-yl)-3-methyl-2,8-diazaspiro[4.5]decan-2-yl)benzonitrile] | 1 to 10 |
